Like-named read-outs stand apart in the source and are kept apart here.
Assays:
GLP-1R = GLP-1R (Homo sapiens, UniProt P43220); assay: HitHunter cAMP assay (GLP-1R); format: cell-based; settings: cAMP; for Emax: read-out: (Emax) GLP-1R
Procedure, shortened: (§1)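 Luminescent readout of cAMP by enzyme-fragment immunocompetition gave agonist concentration-response data. Cells (10,000/well) sat in HBSS buffer containing IBMX 625 μM, HEPES 10 mM and BSA 0.2%, exposed to agonist for 30 min at room temperature.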

GIP-R = target: T1, GIP-R (Homo sapiens, UniProt P48546); assay: HitHunter cAMP assay (GIP-R); format: cell-based; settings: cAMP; for Emax: read-out: (Emax) GIP-R
T1 sequence (P48546 22-466): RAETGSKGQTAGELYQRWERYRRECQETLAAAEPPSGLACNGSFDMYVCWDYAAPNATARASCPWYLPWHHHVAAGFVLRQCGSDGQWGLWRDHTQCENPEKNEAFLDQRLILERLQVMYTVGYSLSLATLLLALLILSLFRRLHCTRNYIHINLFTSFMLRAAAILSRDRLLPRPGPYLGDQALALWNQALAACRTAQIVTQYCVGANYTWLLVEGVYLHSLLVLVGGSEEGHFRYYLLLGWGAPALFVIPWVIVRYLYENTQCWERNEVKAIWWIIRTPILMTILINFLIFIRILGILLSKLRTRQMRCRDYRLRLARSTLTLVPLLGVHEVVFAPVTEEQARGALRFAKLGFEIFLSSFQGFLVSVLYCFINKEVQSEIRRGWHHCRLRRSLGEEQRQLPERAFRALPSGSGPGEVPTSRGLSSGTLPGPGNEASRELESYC
Procedure, shortened: as §1

[1] = Table 3, read-out: EC50 GLP-1R/nM
[2] = Table 3A, read-out: EC50 GLP-1R/nM
[3] = Table 3, read-out: EC50 GIP-R/nM
[4] = Table 3A, read-out: EC50 GIP-R/nM

Sequence of GLP-1R (P43220 24-463): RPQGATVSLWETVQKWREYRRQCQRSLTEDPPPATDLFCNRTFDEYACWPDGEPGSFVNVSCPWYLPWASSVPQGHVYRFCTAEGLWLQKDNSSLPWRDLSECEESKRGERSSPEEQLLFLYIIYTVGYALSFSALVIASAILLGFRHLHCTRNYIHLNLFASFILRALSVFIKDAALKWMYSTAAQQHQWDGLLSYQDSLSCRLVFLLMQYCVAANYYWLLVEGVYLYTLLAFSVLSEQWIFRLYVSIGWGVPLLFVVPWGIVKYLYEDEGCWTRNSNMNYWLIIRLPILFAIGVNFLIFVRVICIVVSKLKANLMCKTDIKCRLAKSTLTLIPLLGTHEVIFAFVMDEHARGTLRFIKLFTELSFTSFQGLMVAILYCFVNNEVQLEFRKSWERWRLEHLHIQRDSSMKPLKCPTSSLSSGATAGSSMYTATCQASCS

Row | SMILES | Emax (GLP-1R; Table 3) [%] | EC50 (GLP-1R; [1]) [nM] | Emax (GLP-1R; Table 3A) [%] | EC50 (GLP-1R; [2]) [nM] | Emax (GIP-R; Table 3) [%] | EC50 (GIP-R; [3]) [nM] | Emax (GIP-R; Table 3A) [%] | EC50 (GIP-R; [4]) [nM] | Emax at 1 µM (GIP-R; read-out: (Emax) GIP-R at 1 μM, Table 3, at 1 μM) [%] | EC50 (GLP-1R; EC50 GLP-1R/nM, Table 3A) [nM] | EC50 (GIP-R; EC50 GIP-R/nM, Table 3A) [nM] | EC50 (GLP-1R; EC50 GLP-1R/nM, Table 3) [nM] | EC50 (GIP-R; EC50 GIP-R/nM, Table 3) [nM]
1 | CCCCCCCCCCCCCCCC(=O)N[C@@H](CCC(=O)NCCCC[C@H](NC(=O)[C@H](CO)NC(=O)[C@@H]1CCCN1C(=O)[C@@H]1CCCN1C(=O)[C@@H]1CCCN1C(=O)[C@H](C)NC(=O)CNC(=O)[C@H](CO)NC(=O)[C@H](CO)NC(=O)[C@@H]1CCCN1C(=O)CNC(=O)CNC(=O)[C@H](C)NC(=O)[C@H](CC(C)C)NC(=O)[C@H](CC(C)C)NC(=O)[C@H](Cc1c[nH]c2ccccc12)NC(=O)[C@H](CC(N)=O)NC(=O)[C@@H](NC(=O)[C@H](Cc1ccccc1)NC(=O)[C@H](CCC(=O)O)NC(=O)C(C)(C)NC(=O)[C@H](C)NC(=O)[C@H](C)NC(=O)[C@H](CCC(N)=O)NC(=O)[C@H](CCCCN)NC(=O)[C@H](CC(=O)O)NC(=O)[C@H](CC(C)C)NC(=O)[C@H](Cc1ccc(O)cc1)NC(=O)[C@@H](NC(=O)[C@H](CO)NC(=O)[C@H](Cc1ccc(O)cc1)NC(=O)[C@H](CC(=O)O)NC(=O)[C@H](CO)NC(=O)[C@@H](NC(=O)[C@H](Cc1ccccc1)NC(=O)[C@@H](NC(=O)CNC(=O)[C@H](CCC(=O)O)NC(=O)CSCC(=O)NCCN1C[C@@H](O)CC1=O)[C@@H](C)O)[C@@H](C)O)[C@@H](C)CC)C(C)C)C(N)=O)C(=O)O [Compound 45] | 100 | 0.1 to 1 | 100 | 0.1 to 1 | 42 | 1 to 10 | 42 | 1 to 10 |  |  |  |  | 
2 | CCCCCCCCCCCCCCCC(=O)N[C@@H](CCC(=O)NCCCC[C@H](NC(=O)[C@H](CO)NC(=O)[C@@H]1CCCN1C(=O)[C@@H]1CCCN1C(=O)[C@@H]1CCCN1C(=O)[C@H](C)NC(=O)CNC(=O)[C@H](CO)NC(=O)[C@H](CO)NC(=O)[C@@H]1CCCN1C(=O)CNC(=O)CNC(=O)[C@H](C)NC(=O)[C@H](CC(C)C)NC(=O)[C@H](CC(C)C)NC(=O)[C@H](Cc1c[nH]c2ccccc12)NC(=O)[C@H](CC(N)=O)NC(=O)[C@@H](NC(=O)[C@H](Cc1ccccc1)NC(=O)[C@H](CCC(=O)O)NC(=O)C(C)(C)NC(=O)[C@H](C)NC(=O)[C@H](C)NC(=O)[C@H](CCC(N)=O)NC(=O)[C@H](CCCCN)NC(=O)[C@H](CC(=O)O)NC(=O)[C@H](CC(C)C)NC(=O)[C@H](Cc1ccc(O)cc1)NC(=O)[C@@H](NC(=O)[C@H](CO)NC(=O)[C@H](Cc1ccc(O)cc1)NC(=O)[C@H](CC(=O)O)NC(=O)[C@H](CO)NC(=O)[C@@H](NC(=O)[C@H](Cc1ccccc1)NC(=O)[C@@H](NC(=O)CNC(=O)[C@H](CCC(=O)O)NC(=O)C(C)(C)C(=O)NCCn1ccccc1=O)[C@@H](C)O)[C@@H](C)O)[C@@H](C)CC)C(C)C)C(N)=O)C(=O)O [Compound 254] |  |  |  | < 0.1 |  |  | 80 | 1 to 10 |  |  |  |  | 
3 | CCCCCCCCCCCCCCCC(=O)N[C@@H](CCC(=O)NCCCC[C@H](NC(=O)[C@H](CO)NC(=O)[C@@H]1CCCN1C(=O)[C@@H]1CCCN1C(=O)[C@@H]1CCCN1C(=O)[C@H](C)NC(=O)CNC(=O)[C@H](CO)NC(=O)[C@H](CO)NC(=O)[C@@H]1CCCN1C(=O)CNC(=O)CNC(=O)[C@H](C)NC(=O)[C@H](CC(C)C)NC(=O)[C@H](CC(C)C)NC(=O)[C@H](Cc1c[nH]c2ccccc12)NC(=O)[C@H](CC(N)=O)NC(=O)[C@@H](NC(=O)[C@H](Cc1ccccc1)NC(=O)[C@H](CCC(=O)O)NC(=O)C(C)(C)NC(=O)[C@H](C)NC(=O)[C@H](C)NC(=O)[C@H](CCC(N)=O)NC(=O)[C@H](CCCCN)NC(=O)[C@H](CC(=O)O)NC(=O)[C@H](CC(C)C)NC(=O)[C@H](Cc1ccc(O)cc1)NC(=O)[C@@H](NC(=O)[C@H](CO)NC(=O)[C@H](Cc1ccc(O)cc1)NC(=O)[C@H](CC(=O)O)NC(=O)[C@H](CO)NC(=O)[C@@H](NC(=O)[C@H](Cc1ccccc1)NC(=O)[C@@H](NC(=O)CNC(=O)[C@H](CCC(=O)O)NC(=O)CSCC(=O)NCCC1CCCC1)[C@@H](C)O)[C@@H](C)O)[C@@H](C)CC)C(C)C)C(N)=O)C(=O)O [Compound 57] | 109 | 0.1 to 1 | 109 | 0.1 to 1 |  |  |  |  | 7 |  |  |  | 
4 | CCCCCCCCCCCCCCCC(=O)N[C@@H](CCC(=O)NCCCC[C@H](NC(=O)[C@H](CO)NC(=O)[C@@H]1CCCN1C(=O)[C@@H]1CCCN1C(=O)[C@@H]1CCCN1C(=O)[C@H](C)NC(=O)CNC(=O)[C@H](CO)NC(=O)[C@H](CO)NC(=O)[C@@H]1CCCN1C(=O)CNC(=O)CNC(=O)[C@H](C)NC(=O)[C@H](CC(C)C)NC(=O)[C@H](CC(C)C)NC(=O)[C@H](Cc1c[nH]c2ccccc12)NC(=O)[C@H](CC(N)=O)NC(=O)[C@@H](NC(=O)[C@H](Cc1ccccc1)NC(=O)[C@H](CCC(=O)O)NC(=O)C(C)(C)NC(=O)[C@H](C)NC(=O)[C@H](C)NC(=O)[C@H](CCC(N)=O)NC(=O)[C@H](CCCCN)NC(=O)[C@H](CC(=O)O)NC(=O)[C@H](CC(C)C)NC(=O)[C@H](Cc1ccc(O)cc1)NC(=O)[C@@H](NC(=O)[C@H](CO)NC(=O)[C@H](Cc1ccc(O)cc1)NC(=O)[C@H](CC(=O)O)NC(=O)[C@H](CO)NC(=O)[C@@H](NC(=O)[C@H](Cc1ccccc1)NC(=O)[C@@H](NC(=O)CNC(=O)[C@H](CCC(=O)O)NC(=O)CSCC(=O)NCCN1C(=O)c2ccc(C)cc2C1=O)[C@@H](C)O)[C@@H](C)O)[C@@H](C)CC)C(C)C)C(N)=O)C(=O)O [Compound 247] |  |  | 102 |  |  |  | 110 |  |  | 0.1 to 1 | < 0.1 |  | 
5 | CCCCCCCCCCCCCCCC(=O)N[C@@H](CCC(=O)NCCCC[C@H](NC(=O)[C@H](CO)NC(=O)[C@@H]1CCCN1C(=O)[C@@H]1CCCN1C(=O)[C@@H]1CCCN1C(=O)[C@H](C)NC(=O)CNC(=O)[C@H](CO)NC(=O)[C@H](CO)NC(=O)[C@@H]1CCCN1C(=O)CNC(=O)CNC(=O)[C@H](C)NC(=O)[C@H](CC(C)C)NC(=O)[C@H](CC(C)C)NC(=O)[C@H](Cc1c[nH]c2ccccc12)NC(=O)[C@H](CC(N)=O)NC(=O)[C@@H](NC(=O)[C@H](Cc1ccccc1)NC(=O)[C@H](CCC(=O)O)NC(=O)C(C)(C)NC(=O)[C@H](C)NC(=O)[C@H](C)NC(=O)[C@H](CCC(N)=O)NC(=O)[C@H](CCCCN)NC(=O)[C@H](CC(=O)O)NC(=O)[C@H](CC(C)C)NC(=O)[C@H](Cc1ccc(O)cc1)NC(=O)[C@@H](NC(=O)[C@H](CO)NC(=O)[C@H](Cc1ccc(O)cc1)NC(=O)[C@H](CC(=O)O)NC(=O)[C@H](CO)NC(=O)[C@@H](NC(=O)[C@H](Cc1ccccc1)NC(=O)[C@@H](NC(=O)CNC(=O)[C@H](CCC(=O)O)NC(=O)CSCC(=O)NCCN1C(=O)CC(N)C1=O)[C@@H](C)O)[C@@H](C)O)[C@@H](C)CC)C(C)C)C(N)=O)C(=O)O (mixture of isomers) [Compound 67] | 100 | 0.1 to 1 | 100 | 0.1 to 1 | 65 | 1 to 10 | 65 | 1 to 10 |  |  |  |  | 
6 | CC[C@H](C)[C@H](NC(=O)[C@H](CO)NC(=O)[C@H](Cc1ccc(O)cc1)NC(=O)[C@H](CC(=O)O)NC(=O)[C@H](CO)NC(=O)[C@@H](NC(=O)[C@H](Cc1ccccc1)NC(=O)[C@@H](NC(=O)CNC(=O)[C@H](CCC(=O)O)NC(=O)C(C)(C)C(=O)NCCN1C(=O)c2ccc(C)cc2C1=O)[C@@H](C)O)[C@@H](C)O)C(=O)N[C@@H](Cc1ccc(O)cc1)C(=O)N[C@@H](CC(C)C)C(=O)N[C@@H](CC(=O)O)C(=O)N[C@@H](CCCCN)C(=O)N[C@@H](CCC(N)=O)C(=O)N[C@@H](C)C(=O)N[C@@H](C)C(=O)NC(C)(C)C(=O)N[C@@H](CCC(=O)O)C(=O)N[C@@H](Cc1ccccc1)C(=O)N[C@H](C(=O)N[C@@H](CC(N)=O)C(=O)N[C@@H](Cc1c[nH]c2ccccc12)C(=O)N[C@@H](CC(C)C)C(=O)N[C@@H](CC(C)C)C(=O)N[C@@H](C)C(=O)NCC(=O)NCC(=O)N1CCC[C@H]1C(=O)N[C@@H](CO)C(=O)N[C@@H](CO)C(=O)NCC(=O)N[C@@H](C)C(=O)N1CCC[C@H]1C(=O)N1CCC[C@H]1C(=O)N1CCC[C@H]1C(=O)N[C@@H](CO)C(=O)N[C@@H](CCCCN)C(N)=O)C(C)C [Compound 127] | 95 to 107 |  | 95 to 107 |  | 98 to 102 |  | 98 to 102 |  |  | 1 to 10 | 1 to 10 | 1 to 10 | 1 to 10
